{"source": "patent US6565883B2", "about": "“Controlled release oral compositions comprising rivastigmine” (priority 1998, dated 2003)", "assay": "Rivastigmine's biopharmaceutical properties in humans", "format": "in vivo", "text": "Little has been published in detail on Rivastigmine's biopharmaceutical properties in humans. […] It is subject to pre-systemic and systemic metabolism. […] Suitable test may be effected in fasted beagle dogs.", "data": [{"smiles": "CCN(C)C(=O)Oc1cccc([C@H](C)N(C)C)c1", "note": "[Rivastigmine]", "values": [{"measurement": "absorption", "result": "rapidly and completely absorbed"}, {"measurement": "metabolism", "setting": "esterases, e.g., acetyl and butyryl cholinesterase", "result": "metabolised mainly through hydrolysis by esterases"}, {"measurement": "half-life", "setting": "human, plasma", "result": 1, "unit": "h"}]}]}
